From PubChem BioAssay (NCI)
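Following 48 hours of exposure in 96-well plates, responses at five concentrations were used to interpolate endpoints linearly. GI50 = concentration required for 50% inhibition of growth. TGI: total growth inhibition.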

Legend:
Experiment in all cases: growth of human tumour cells (NCI), 48 h
786-0 renal = system: 786-0 renal
A498 renal = system: A498 renal
A549 NSCLC = system: A549 NSCLC
ACHN renal = system: ACHN renal
BT-549 breast = system: BT-549 breast
CAKI-1 renal = system: CAKI-1 renal
CCRF-CEM leukemia = system: CCRF-CEM leukemia
COLO 205 colon = system: COLO 205 colon
DU-145 prostate = system: DU-145 prostate
EKVX NSCLC = system: EKVX NSCLC
HCC-2998 colon = system: HCC-2998 colon
HCT-116 colon = system: HCT-116 colon
HCT-15 colon = system: HCT-15 colon
HL-60(TB) leukemia = system: HL-60(TB) leukemia
HOP-62 NSCLC = system: HOP-62 NSCLC
HOP-92 NSCLC = system: HOP-92 NSCLC
HS 578T breast = system: HS 578T breast
HT29 colon = system: HT29 colon
IGROV1 ovarian = system: IGROV1 ovarian
K-562 leukemia = system: K-562 leukemia
KM12 colon = system: KM12 colon
LOX IMVI melanoma = system: LOX IMVI melanoma
M14 melanoma = system: M14 melanoma
MALME-3M melanoma = system: MALME-3M melanoma
MCF7 breast = system: MCF7 breast
MDA-MB-231 breast = system: MDA-MB-231 breast
MDA-MB-435 = system: MDA-MB-435
MOLT-4 leukemia = system: MOLT-4 leukemia
NCI-H226 lung = system: NCI-H226 lung
NCI-H460 lung = system: NCI-H460 lung
NCI-H522 lung = system: NCI-H522 lung
NCI/ADR-RES ovarian = system: NCI/ADR-RES ovarian
OVCAR-3 ovarian = system: OVCAR-3 ovarian
OVCAR-4 ovarian = system: OVCAR-4 ovarian
OVCAR-5 ovarian = system: OVCAR-5 ovarian
OVCAR-8 ovarian = system: OVCAR-8 ovarian
PC-3 prostate = system: PC-3 prostate
RPMI-8226 leukemia = system: RPMI-8226 leukemia
RXF 393 renal = system: RXF 393 renal
SF-268 CNS = system: SF-268 CNS
SF-295 CNS = system: SF-295 CNS
SF-539 CNS = system: SF-539 CNS
SK-MEL-2 melanoma = system: SK-MEL-2 melanoma
SK-MEL-28 melanoma = system: SK-MEL-28 melanoma
SK-MEL-5 melanoma = system: SK-MEL-5 melanoma
SK-OV-3 ovarian = system: SK-OV-3 ovarian
SN12C renal = system: SN12C renal
SNB-19 CNS = system: SNB-19 CNS
SNB-75 CNS = system: SNB-75 CNS
SR leukemia = system: SR leukemia
SW-620 colon = system: SW-620 colon
T-47D breast = system: T-47D breast
TK-10 renal = system: TK-10 renal
U251 CNS = system: U251 CNS
UACC-257 melanoma = system: UACC-257 melanoma
UACC-62 melanoma = system: UACC-62 melanoma
UO-31 renal = system: UO-31 renal

c1ccc2c(NCCCN3CCOCC3)c3oc4ccccc4c3nc2c1
GI50 (786-0 renal): 1950 nM | TGI (786-0 renal): 14000 nM | GI50 (A498 renal): 2010 nM | TGI (A498 renal): 4410 nM | GI50 (A549 NSCLC): 1580 nM | TGI (A549 NSCLC): 12600 nM | GI50 (ACHN renal): 577 nM | TGI (ACHN renal): 20100 nM | GI50 (BT-549 breast): 2030 nM | TGI (BT-549 breast): 4750 nM | GI50 (CAKI-1 renal): 1100 nM | TGI (CAKI-1 renal): 11100 nM | GI50 (CCRF-CEM leukemia): 1640 nM | TGI (CCRF-CEM leukemia): 15000 nM | GI50 (COLO 205 colon): 949 nM | TGI (COLO 205 colon): 2770 nM | GI50 (DU-145 prostate): 1550 nM | TGI (DU-145 prostate): 16200 nM | GI50 (EKVX NSCLC): 2540 nM | TGI (EKVX NSCLC): 13200 nM | GI50 (HCC-2998 colon): 1100 nM | TGI (HCC-2998 colon): 3720 nM | GI50 (HCT-116 colon): 437 nM | TGI (HCT-116 colon): 11100 nM | GI50 (HCT-15 colon): 719 nM | TGI (HCT-15 colon): 12200 nM | GI50 (HL-60(TB) leukemia): 2340 nM | TGI (HL-60(TB) leukemia): 8590 nM | GI50 (HOP-62 NSCLC): 1670 nM | TGI (HOP-62 NSCLC): 8180 nM | GI50 (HOP-92 NSCLC): 2100 nM | TGI (HOP-92 NSCLC): 5820 nM | GI50 (HS 578T breast): 2080 nM | TGI (HS 578T breast): 6990 nM | GI50 (HT29 colon): 566 nM | TGI (HT29 colon): 2330 nM | GI50 (IGROV1 ovarian): 2260 nM | TGI (IGROV1 ovarian): 12000 nM | GI50 (K-562 leukemia): 649 nM | TGI (K-562 leukemia): > 100000 nM | GI50 (KM12 colon): 1460 nM | TGI (KM12 colon): 15300 nM | GI50 (LOX IMVI melanoma): 568 nM | TGI (LOX IMVI melanoma): 3230 nM | GI50 (M14 melanoma): 1660 nM | TGI (M14 melanoma): 4110 nM | GI50 (MALME-3M melanoma): 1820 nM | TGI (MALME-3M melanoma): 3850 nM | GI50 (MCF7 breast): 1020 nM | TGI (MCF7 breast): 5830 nM | GI50 (MDA-MB-231 breast): 1540 nM | TGI (MDA-MB-231 breast): 7140 nM | GI50 (MDA-MB-435): 1260 nM | TGI (MDA-MB-435): 2610 nM | GI50 (MOLT-4 leukemia): 476 nM | TGI (MOLT-4 leukemia): 38100 nM | GI50 (NCI-H226 lung): 1930 nM | TGI (NCI-H226 lung): 5300 nM | GI50 (NCI-H460 lung): 459 nM | TGI (NCI-H460 lung): 5960 nM | GI50 (NCI-H522 lung): 1280 nM | TGI (NCI-H522 lung): 3150 nM | GI50 (NCI/ADR-RES ovarian): 692 nM | TGI (NCI/ADR-RES ovarian): 10900 nM | GI50 (OVCAR-3 ovarian): 2410 nM | TGI (OVCAR-3 ovarian): 45400 nM | GI50 (OVCAR-4 ovarian): 1240 nM | TGI (OVCAR-4 ovarian): 5140 nM | GI50 (OVCAR-5 ovarian): 1570 nM | TGI (OVCAR-5 ovarian): 7280 nM | GI50 (OVCAR-8 ovarian): 1170 nM | TGI (OVCAR-8 ovarian): 11200 nM | GI50 (PC-3 prostate): 1890 nM | TGI (PC-3 prostate): 7590 nM | GI50 (RPMI-8226 leukemia): 1720 nM | TGI (RPMI-8226 leukemia): 6280 nM | GI50 (RXF 393 renal): 1290 nM | TGI (RXF 393 renal): 3220 nM | GI50 (SF-268 CNS): 1250 nM | TGI (SF-268 CNS): 15500 nM | GI50 (SF-295 CNS): 1590 nM | TGI (SF-295 CNS): 10700 nM | GI50 (SF-539 CNS): 1500 nM | TGI (SF-539 CNS): 3460 nM | GI50 (SK-MEL-2 melanoma): 1730 nM | TGI (SK-MEL-2 melanoma): 3290 nM | GI50 (SK-MEL-28 melanoma): 1880 nM | TGI (SK-MEL-28 melanoma): 3790 nM | GI50 (SK-MEL-5 melanoma): 1980 nM | TGI (SK-MEL-5 melanoma): 3990 nM | GI50 (SK-OV-3 ovarian): 3140 nM | TGI (SK-OV-3 ovarian): 18600 nM | GI50 (SN12C renal): 1020 nM | TGI (SN12C renal): 11500 nM | GI50 (SNB-19 CNS): 1870 nM | TGI (SNB-19 CNS): 13100 nM | GI50 (SNB-75 CNS): 1310 nM | TGI (SNB-75 CNS): 2600 nM | GI50 (SR leukemia): 599 nM | TGI (SR leukemia): 10100 nM | GI50 (SW-620 colon): 509 nM | TGI (SW-620 colon): 10500 nM | GI50 (T-47D breast): 2610 nM | TGI (T-47D breast): 9770 nM | GI50 (TK-10 renal): 2550 nM | TGI (TK-10 renal): 9750 nM | GI50 (U251 CNS): 1490 nM | TGI (U251 CNS): 11000 nM | GI50 (UACC-257 melanoma): 1940 nM | TGI (UACC-257 melanoma): 4080 nM | GI50 (UACC-62 melanoma): 2160 nM | TGI (UACC-62 melanoma): 5490 nM | GI50 (UO-31 renal): 1730 nM | TGI (UO-31 renal): 11700 nM
